Results taken from paper PMC5920042, “KH176 Safeguards Mitochondrial Diseased Cells from Redox Stress-Induced Cell Death by Interacting with the Thioredoxin System/Peroxiredoxin Enzyme Machinery” (Scientific Reports, 2018).
Several values for one entry are separate records, joined by “and”; a condition that tells them apart may be missing. Equal entries are not always repeated. Marks after values point to notes of the source that are not given here.

Tests used:
P4 cell line [1] = experiment: Radical-Scavenging Capacity assay (CM-H2DCFDA, H2O2 or KO2); type: cell-based, human; conditions: P4 cells, 100 µM H2O2 or 1 mM KO2 (text: KOH), 3 µM compound
Procedure: Cells were seeded at a density of 4 × 10^3 cells/well into 96-wells black plates. After 24 h the cells were loaded with 5 µM CM-H2DCFDA in M199 without phenol red for 20 min. The dye excess was washed with M199 without phenol red and immediately after, cells were treated acutely with different concentrations of the test compounds in M199 without phenol red. To generate radicals, 100 µM H2O2 or 1 mM KO2 were injected to the compound-treated cells and CM-DCF fluorescence was measured every 2 min for 70 cycles on a scanning microplate reader (BMG FLUOstar Omega; Ex. 480 nm, Em. 520 nm). The area under the generated curves was calculated using the Origin 6.1 software (OriginLab).

P4 cell line [2] = experiment: Cellular ROS assay (DCFH-DA); type: cell-based, human; conditions: P4 cells, 24 h compound treatment
Procedure: The cells were then treated for 72 h (or shorter as indicated) with culture medium containing semi-logarithmic dilutions of the test compound. Alternatively, 3 × 10^3 cells/well were seeded when cells were treated for 24 h only. At the end of the incubation period, cells were loaded with 40 µM DCFH-DA (#D6883, Sigma-Aldrich). in M199 without phenol red for 30 min. The excess of the dye was washed with ice-cold M199 without phenol red and the cells were lysed with 100 µl/well of ice-cold 0.2% Triton X-100 in M199 without phenol red after 10 min incubation in ice. Cellular debris was spun down by centrifugation at 2600 g, 5 min, +4 °C and 90 µl/well of cell lysate were transferred to a black 96-wells plate and DCF fluorescence was measured on a scanning microplate reader (BMG FLUOstar Omega; Ex. 480 nm, Em. 520 nm).

[3] = test system: primary human skin fibroblasts; experiment: Mitochondrial superoxide detection by mitoSOX oxidation; type: cell-based; conditions: 30 min preincubation, no external stimulus; read-out: IC50 mitochondrial superoxide levels (mitoSOX)
Procedure: The cells were seeded at a density of 3 × 10^3 cells/well into 96-wells black plates. After 24 h, the cells were incubated with different amounts of KH176(m) in M199 without phenol red. This medium was used in all subsequent washes and incubations. After 30 min. incubation the cells were washed and subsequently incubated 1 µM mitoSOX (#M36008, ThermoFisher). […] After 10 min incubation the cells were washed twice and incubated for 30 min. to allow the accumulation of oxidized mitoSOX in the mitochondria. […] Wells with cells but without mitoSOX were used for background correction. Experiments were performed at least three times with 3 wells per experiment.

P4 cell line [4] = experiment: Redox Stress Survival assay (BSO-induced cell death, Calcein AM viability); type: cell-based, human
Procedure: Cells were seeded at a density of 4 × 10^3 cells/well into 96-wells black plates and incubated for 24 h. To induce redox stress, semi-logarithmic dilutions of buthionine sulphoximine (BSO, #B2515, Sigma Aldrich) up to 100 µM were added to the cells in culture medium and incubated for 24 h. Cell viability was assessed by quantification of cellular conversion of Calcein AM into fluorescent Calcein. Briefly, after having discarded the BSO containing medium, cells were washed once with M199 without phenol red and loaded with 2 µM Calcein AM (#65-0853-39, Affimetrix eBioscience) in M199 without phenol red for 25 min. At the end of the incubation period, the excess of the dye was washed with M199 without phenol red and Calcein fluorescence was measured with a scanning microplate reader (BMG FLUOstar Omega; Ex. 480 nm, Em. 520 nm). For compound screening and target identification measurements cells were treated with 200 µM BSO alone or in co-incubation with semi-logarithmic dilutions of the test compound. Additionally, where indicated, increasing doses of Auranofin (AFN, #BML-EI206-0100, Enzo) or Aurothioglucose (ATG, #A0606, Sigma Aldrich) were co-incubated with BSO and the test compound. In all cases, cell viability was assessed 24 h after the treatment.

[5] = Single dose pharmacokinetics and bioavailability study; type: in vivo, male C57BL/6 mice; conditions: mouse
Procedure: (§1) Pharmacokinetics and toxicokinetics measurements were performed by the commercial Contract Research Organizations Sai Life Sciences and WuXi AppTec, respectively, according to their standard protocols and in accordance with relevant guidelines and regulations. C57 BL/6 mice, Sprague Dawley rats, and Beagle dogs were studied.

[6] = 28-day repeat oral dose toxicity study, toxicokinetics; type: in vivo, Beagle dogs; conditions: dog
Procedure: as §1

[7] = KH176 10 mg/kg/dose BID oral, F, Day 1, plasma
[8] = KH176 10 mg/kg/dose BID oral, F, Day 28, plasma
[9] = KH176 10 mg/kg/dose BID oral, M, Day 1, plasma
[10] = KH176 10 mg/kg/dose BID oral, M, Day 28, plasma
[11] = KH176 25 mg/kg/dose BID oral, F, Day 1, plasma
[12] = KH176 25 mg/kg/dose BID oral, F, Day 28, plasma
[13] = KH176 25 mg/kg/dose BID oral, M, Day 1, plasma
[14] = KH176 25 mg/kg/dose BID oral, M, Day 28, plasma
[15] = KH176 62.5 mg/kg/dose BID oral, F, Day 1, plasma
[16] = KH176 62.5 mg/kg/dose BID oral, F, Day 28, plasma
[17] = KH176 62.5 mg/kg/dose BID oral, M, Day 1, plasma
[18] = KH176 62.5 mg/kg/dose BID oral, M, Day 28, plasma

SMILES: CC1=C(C)C(=O)C(CC[C@](C)(O)C(=O)N[C@@H]2CCCNC2)=C(C)C1=O [KH176m]
- Reduction of H2O2-induced radicals and O2.- (CM-H2DCFDA oxidation) (P4 cell line [1]): able to reduce the levels of both radicals
- IC50 (P4 cell line [2]): 0.25 µM and 0.255 µM
- IC50 [3]: 1.4 µM
- EC50 (P4 cell line [4]; P4 cells, 200 µM BSO, 24 h): 0.038 µM and 0.0387 µM
- Viability of patient cells under BSO (P4 cell line [4]; increasing BSO 24 h, 1 µM compound): fully protected
- Brain to Plasma ratio, range (1–8 hours) ([5]; KH176 2 mg/kg i.v.): b.d.
- Heart to Plasma ratio, range (1–8 hours) ([5]; KH176 2 mg/kg i.v.): 6.1–11.6
- Liver to Plasma ratio, range (1–8 hours) ([5]; KH176 2 mg/kg i.v.): 29.0–57.1
- Skeletal muscle to Plasma ratio, range (1–8 hours) ([5]; KH176 2 mg/kg i.v.): 8.2–20.5
- AUCINF ([5]; KH176 2 mg/kg i.v., plasma): 0.1469 µg·h/mL
- AUClast ([5]; KH176 2 mg/kg i.v., plasma): 0.14 µg·h/mL
- T1/2 ([5]; KH176 2 mg/kg i.v., plasma): 0.5 h
- C0 (i.v.) ([5]; KH176 2 mg/kg i.v., plasma, back extrapolated): 0.3593 µg/mL
- Brain to Plasma ratio, range (1–8 hours) ([5]; KH176 10 mg/kg p.o.): 0.1–19.6
- Heart to Plasma ratio, range (1–8 hours) ([5]; KH176 10 mg/kg p.o.): 2.1–14.6
- Liver to Plasma ratio, range (1–8 hours) ([5]; KH176 10 mg/kg p.o.): 12.8–94.1
- AUCINF ([5]; KH176 10 mg/kg p.o., plasma): 1.2608 µg·h/mL
- AUClast ([5]; KH176 10 mg/kg p.o., plasma): 1.2252 µg·h/mL
- Cmax (p.o.) ([5]; KH176 10 mg/kg p.o., plasma): 1.0618 µg/mL
- Tmax ([5]; KH176 10 mg/kg p.o., plasma): 0.25 h
- Skeletal muscle to Plasma ratio, range at 1 hour ([5]; KH176 10 mg/kg p.o., no concentrations detected at 8 hours): 4.4–33.8^d
- AUC0–24 h Ratio KH176m/KH176 ([6]; KH176 10 mg/kg/dose BID oral, F, Day 1): 0.864
- AUC0–24 h [6, 7]: 7.64 µg·h/mL
- Cmax [6, 7]: 0.539 µg/mL
- T1/2 [6, 7]: 5.4 h
- AUC0–24 h Ratio KH176m/KH176 ([6]; KH176 10 mg/kg/dose BID oral, F, Day 28): 0.719
- AUC0–24 h [6, 8]: 10.5 µg·h/mL
- Cmax [6, 8]: 0.786 µg/mL
- T1/2 [6, 8]: 4.7 h
- AUC0–24 h Ratio KH176m/KH176 ([6]; KH176 10 mg/kg/dose BID oral, M, Day 1): 0.848
- AUC0–24 h [6, 9]: 13.9 µg·h/mL
- Cmax [6, 9]: 0.946 µg/mL
- T1/2 [6, 9]: 4.7 h
- AUC0–24 h Ratio KH176m/KH176 ([6]; KH176 10 mg/kg/dose BID oral, M, Day 28): 0.668
- AUC0–24 h [6, 10]: 12.7 µg·h/mL
- Cmax [6, 10]: 0.916 µg/mL
- T1/2 [6, 10]: 7.7 h
- AUC0–24 h Ratio KH176m/KH176 ([6]; KH176 25 mg/kg/dose BID oral, F, Day 1): 0.845
- AUC0–24 h [6, 11]: 35.4 µg·h/mL
- Cmax [6, 11]: 2.2 µg/mL
- AUC0–24 h Ratio KH176m/KH176 ([6]; KH176 25 mg/kg/dose BID oral, F, Day 28): 0.823
- AUC0–24 h [6, 12]: 32.9 µg·h/mL
- Cmax [6, 12]: 2.17 µg/mL
- AUC0–24 h Ratio KH176m/KH176 ([6]; KH176 25 mg/kg/dose BID oral, M, Day 1): 0.967
- AUC0–24 h [6, 13]: 41.2 µg·h/mL
- Cmax [6, 13]: 2.61 µg/mL
- T1/2 [6, 13]: 11.1 h
- AUC0–24 h Ratio KH176m/KH176 ([6]; KH176 25 mg/kg/dose BID oral, M, Day 28): 0.970
- AUC0–24 h [6, 14]: 38.7 µg·h/mL
- Cmax [6, 14]: 2.27 µg/mL
- T1/2 [6, 14]: 14.3 h
- AUC0–24 h Ratio KH176m/KH176 ([6]; KH176 62.5 mg/kg/dose BID oral, F, Day 1): 0.908
- AUC0–24 h [6, 15]: 57.3 µg·h/mL
- Cmax [6, 15]: 3.55 µg/mL
- T1/2 [6, 15]: 5.3 h
- AUC0–24 h Ratio KH176m/KH176 ([6]; KH176 62.5 mg/kg/dose BID oral, F, Day 28): 0.938
- AUC0–24 h [6, 16]: 80.2 µg·h/mL
- Cmax [6, 16]: 4.99 µg/mL
- T1/2 [6, 16]: 12.2 h
- AUC0–24 h Ratio KH176m/KH176 ([6]; KH176 62.5 mg/kg/dose BID oral, M, Day 1): 0.743
- AUC0–24 h [6, 17]: 68 µg·h/mL
- Cmax [6, 17]: 4.02 µg/mL
- T1/2 [6, 17]: 12.9 h
- AUC0–24 h Ratio KH176m/KH176 ([6]; KH176 62.5 mg/kg/dose BID oral, M, Day 28): 0.835
- AUC0–24 h [6, 18]: 85.2 µg·h/mL
- Cmax [6, 18]: 5.25 µg/mL
